Results as given in the supplement of paper PMC10307832.

Experiments:
Experiment in all cases: relative viability (nuclei count vs DMSO), 5 days (fraction); higher = more cells survive
Temozolomide + OSI-027 = compound: Cn1nnc2c(C(N)=O)ncn2c1=O [Temozolomide] + COc1cccc2cc(-c3nc([C@H]4CC[C@H](C(=O)O)CC4)n4ncnc(N)c34)[nH]c12 [OSI-027] (partner 0.5 µM)
Outline: (§1)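 Each reported value is a median over duplicate plates. It expresses relative viability: treated-well nuclei count divided by vehicle-well nuclei count. Lung cancer cell lines in 1536-well plates were dosed by pin tool a day after seeding, alone with one drug or with a fixed anchor-drug dose plus five library-drug doses (not always all listed) in √10 steps, and nuclei were counted after 5 days.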

Temozolomide + Lapatinib = compound: Cn1nnc2c(C(N)=O)ncn2c1=O [Temozolomide] + CS(=O)(=O)CCNCc1ccc(-c2ccc3ncnc(Nc4ccc(OCc5cccc(F)c5)c(Cl)c4)c3c2)o1 [Lapatinib] (partner 2 µM)
Outline: as §1

[1] = compound: Cn1nnc2c(C(N)=O)ncn2c1=O [Temozolomide] + Nc1nc2[nH]cc(CCc3ccc(C(=O)N[C@@H](CCC(=O)O)C(=O)O)cc3)c2c(=O)[nH]1 [Pemetrexed] (partner 0.2 µM)
Outline: as §1

AZD5582 + Foretinib = compound: C[C@@H](C(=O)N[C@@H](C1CCCCC1)C(=O)N2CCC[C@H]2C(=O)N[C@@H]3[C@@H](CC4=CC=CC=C34)OCC#CC#CCO[C@@H]5CC6=CC=CC=C6[C@@H]5NC(=O)[C@@H]7CCCN7C(=O)[C@H](C8CCCCC8)NC(=O)[C@H](C)NC)NC [AZD5582] + COc1cc2c(Oc3ccc(NC(=O)C4(C(=O)Nc5ccc(F)cc5)CC4)cc3F)ccnc2cc1OCCCN1CCOCC1 [Foretinib] (partner 0.25 µM)
Outline: as §1

Cell Line	relative viability (Temozolomide + OSI-027; first compound 0.2 µM)	relative viability (Temozolomide + OSI-027; first compound 0.6325 µM)	relative viability (Temozolomide + OSI-027; first compound 2 µM)	relative viability (Temozolomide + OSI-027; first compound 6.325 µM)	relative viability (Temozolomide + OSI-027; first compound 20 µM)	relative viability (Temozolomide + Lapatinib; first compound 0.2 µM)	relative viability (Temozolomide + Lapatinib; first compound 0.6325 µM)	relative viability (Temozolomide + Lapatinib; first compound 2 µM)	relative viability (Temozolomide + Lapatinib; first compound 6.325 µM)	relative viability (Temozolomide + Lapatinib; first compound 20 µM)	relative viability ([1]; first compound 0.2 µM)	relative viability ([1]; first compound 0.6325 µM)	relative viability ([1]; first compound 2 µM)	relative viability ([1]; first compound 6.325 µM)	relative viability ([1]; first compound 20 µM)	relative viability (AZD5582 + Foretinib; first compound 0.001581 µM)	relative viability (AZD5582 + Foretinib; first compound 0.005 µM)	relative viability (AZD5582 + Foretinib; first compound 0.01581 µM)	relative viability (AZD5582 + Foretinib; first compound 0.05 µM)
LU99A	0.27	0.317	0.321	0.283	0.306	1.13	1.03	0.977	0.87	0.966	0.208	0.179	0.175	0.185	0.252	0.871	0.948	0.886	1.03
LXF-289	0.772	0.863	0.927	0.76	0.63	0.939	0.934	0.919	0.847	0.861	0.941	0.877	0.868	0.857	0.868	0.941	0.944	1.03	0.977
NCI-H23	0.547	0.682	0.565	0.59	0.461	1.22	1.04	1.15	0.969	0.912	0.825	0.749	0.716	0.565	0.677	0.762	0.872	0.787	0.952
NCI-H441	0.597	0.85	0.846	0.523	0.651	–	–	–	–	–	0.28	0.309	0.272	0.257	0.236	0.847	1.03	–	0.883
NCI-H522	0.723	0.729	0.778	0.665	0.648	–	–	–	–	–	0.765	0.972	1.27	0.984	0.804	–	–	–	–
